{"source": "patent US12384775B2", "about": "“Pyrimid-2-yl-pyrazole compounds as IRAK inhibitors” (Rigel Pharmaceuticals, Inc., priority 2022, dated 2025)", "key": {"IRAK4": {"target": "T1, IRAK4 (Homo sapiens, UniProt Q9NWZ3)", "T1 construct": "purchased Signalchem I12-10G-20", "T1 sequence (Q9NWZ3 1-460)": "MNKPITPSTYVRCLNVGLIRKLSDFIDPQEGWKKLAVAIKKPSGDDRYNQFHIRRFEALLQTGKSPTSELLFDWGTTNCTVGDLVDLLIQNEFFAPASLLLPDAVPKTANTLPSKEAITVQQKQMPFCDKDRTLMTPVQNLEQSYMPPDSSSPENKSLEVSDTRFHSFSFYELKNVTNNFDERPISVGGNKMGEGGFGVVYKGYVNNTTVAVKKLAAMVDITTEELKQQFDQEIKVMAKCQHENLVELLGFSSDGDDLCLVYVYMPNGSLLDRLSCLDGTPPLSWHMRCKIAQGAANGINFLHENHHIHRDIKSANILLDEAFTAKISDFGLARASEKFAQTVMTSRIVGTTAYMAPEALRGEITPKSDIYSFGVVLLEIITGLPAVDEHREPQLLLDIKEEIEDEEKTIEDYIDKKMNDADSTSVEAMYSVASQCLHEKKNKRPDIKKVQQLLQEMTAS", "experiment": "IRAK4 Z'-LYTE assay", "assay_type": "biochemical", "conditions": "for IC50: n = 1", "experimental": "• Bar-coded Corning, low volume NBS, black 384-well plate (Corning Cat. #4514) • Test Compounds: The Test Compounds are screened in 1% DMSO (final) in the well. For 10 point titrations, 3-fold serial dilutions are conducted from 10 µM. • Peptide/Kinase Mixture: The 2×IRAK4/Ser/Thr 07 mixture is prepared in 50 mM HEPES pH 7.5, 0.01% BRIJ-35, 10 mM MnCl2, 1 mM EGTA, 2 mM DTT, 0.02% NaN3. • ATP Solution: All ATP Solutions are diluted to a 4× working concentration in Kinase Buffer (50 mM HEPES pH 7.5, 0.01% BRIJ-35, 10 mM MgCl2, 1 mM EGTA). ATP Km apparent is previously determined using a Z-LYTE® assay. • Development Reagent Solution: The Development Reagent is diluted 1:45000 in Development Buffer. General Method • 1. 100 nL—100× Test Compound in 100% DMSO • 2. […]—Kinase buffer • 3. 5 μL—2× Peptide/Kinase Mixture • 4. 2.5 μL—4×ATP Solution\nThe final 10 μL Kinase Reaction consists of 3.45-63.6 ng IRAK4 and 2 μM Ser/Thr 07 in 50 mM HEPES pH 7.5, 0.01% BRIJ-35, 5 mM MgCl2, 5 mM MnCl2, 1 mM EGTA, 1 mM DTT, 0.01% NaN3. • 5. 30-second plate shake • 6. 60-minute Kinase Reaction incubation at room temperature • 7. 5 μL—Development Reagent Solution • 8. 30-second plate shake • 9. 60-minute Development Reaction incubation at room temperature • 10. Read on fluorescence plate reader and analyze the data"}, "[1]": {"experiment": "Plasma protein binding, equilibrium dialysis (RED), human", "assay_type": "in vitro ADME", "conditions": "for recovery at 5 μM / fraction unbound at 5 μM: Human plasma, drug 5 μM; for fraction unbound at 5 μM: read-out: % bound (converted); for Free Fraction in Whole Blood Assay, Human: plasma free fraction", "experimental": "(§1) Brain and plasma drug binding were performed by equilibrium dialysis using the Rapid Equilibrium Dialysis (RED) device. Briefly, 300 μL of plasma or brain homogenate (1 brain/3 buffer) containing drug (5 μM) was equilibrated (4-18 h) against 500 μL of buffered saline. After incubation, the concentration of drug in plasma/brain homogenate and buffer was determined by LC-MS/MS.\n(§2) Recovery is calculated by determining the total amount of drug in 50 μL of plasma and 50 μL buffer after the incubation and comparing that value to the amount of drug in 50 μL of a plasma sample that was not incubated. For the protein binding assay, drug was added to the plasma and this plasma was added to one side of the dialysis device while buffer was added to the other. After filing the plasma chamber of the equilibrium device, a 50 μL aliquot of plasma was mixed with 50 μL of buffer and then quenched with stop reagent. Drug recovery=(Drug buffer+Drug plasma)/(drug in initial plasma)"}, "[2]": {"experiment": "Plasma protein binding, equilibrium dialysis (RED), mouse", "assay_type": "in vitro ADME", "conditions": "drug 5 μM; for recovery at 5 μM: low due to hydrolysis; for fraction unbound at 5 μM: read-out: % bound (converted)", "experimental": "as §1, §2"}, "[3]": {"system": "LPS Induced TNF-α in Human Blood", "experiment": "LPS induced TNF-α in human whole blood", "assay_type": "cell-based", "conditions": "LPS 0.5 ng/ml overnight, read-out: Human Whole Blood Assays (IC5050), TNFα LPS", "experimental": "(§3) To assess the effect of whole blood on the potency of compound I-1 and Comparison-1, the compounds were evaluated for their inhibitory potential on TLR dependent cytokine release in human blood. Freshly drawn peripheral blood from healthy volunteers was incubated with test compound and stimulated overnight with LPS or Gardiquimod. The serum was isolated after centrifugation and TNF-α and IL-6 were measured by ELISA.\nWhole blood of healthy volunteers was collected in Vacutainer containing Sodium Heparin and plate 40 μL of blood to each well. Compound was serially diluted in DMSO from 2 mM in 3-fold dilutions, and then diluted 1:100 in media with 10% FBS. 50 μL of 2× compound was added per well in duplicate to each well and incubate for one hour. 10 μL LPS was added to each well at a final concentration of 0.5 ng/ml and allow cells to incubate overnight.\n100 μL of PBS was added to each well and centrifuged for 10 minutes at 1000 RPM. 25 μL of supernatant were taken, and TNF-α was measured on Luminex Flexmap 3d."}, "[4]": {"system": "TLR dependent cytokine release in human blood", "experiment": "Human whole blood assays, average of IL-6 Gard and TNFα LPS", "assay_type": "cell-based", "conditions": "read-out: Human Whole Blood Assays (IC5050), Average", "experimental": "as §3"}}, "data": [{"compound": "CCO[C@H]1CC[C@H](n2cc(NC(=O)c3csc(-c4cn[nH]c4)n3)c(-c3nc(F)ccc3F)n2)CC1", "note": "[Comparison-1, reference compound]", "values": [{"measurement": "IC50", "setting": "IRAK4", "value": 15, "unit": "nM"}, {"measurement": "recovery at 5 μM", "setting": "[1]", "value": 75.5, "unit": "%"}, {"measurement": "fraction unbound at 5 μM", "setting": "[1]", "value": 0.004}, {"measurement": "Free Fraction in Whole Blood Assay, Human", "setting": "[1]", "value": 0.4, "unit": "%"}, {"measurement": "recovery at 5 μM", "setting": "[2]", "value": 10, "unit": "%"}, {"measurement": "fraction unbound at 5 μM", "setting": "[2]", "value": 0.022}, {"measurement": "IC50", "setting": "[3]", "value": 1400, "unit": "nM"}, {"measurement": "IC50", "setting": "[4]", "value": 1400, "unit": "nM"}]}, {"compound": "CCO[C@H]1CC[C@H](n2cc(NC(=O)c3csc(-c4cn[nH]c4)n3)c(-c3ncccn3)n2)CC1", "note": "[Compound I-1, N-(1-((1r,4r)-4-ethoxycyclohexyl)-3-(pyrimidin-2-yl)-1H-pyrazol-4-yl)-2-(1H-pyrazol-4-yl)thiazole-4-carboxamide]", "values": [{"measurement": "EC50", "setting": "IRAK4", "value": 6, "unit": "nM"}, {"measurement": "IC50", "setting": "IRAK4", "value": 6, "unit": "nM"}, {"measurement": "recovery at 5 μM", "setting": "[1]", "value": 77.1, "unit": "%"}, {"measurement": "fraction unbound at 5 μM", "setting": "[1]", "value": 0.03}, {"measurement": "Free Fraction in Whole Blood Assay, Human", "setting": "[1]", "value": 3.0, "unit": "%"}, {"measurement": "times more free than Comparison-1 (free drug)", "setting": "[1]; in rat, dog, monkey and human proteins", "value": "approximately 6 times"}, {"measurement": "recovery at 5 μM", "setting": "[2]", "value": 23.6, "unit": "%"}, {"measurement": "fraction unbound at 5 μM", "setting": "[2]", "value": 0.085}, {"measurement": "IC50", "setting": "[3]", "value": 224, "unit": "nM"}, {"measurement": "IC50", "setting": "[4]", "value": 174, "unit": "nM"}]}]}
